The results in this text go back to US20240336617A1, “Substituted Bimane Compounds and Methods of Use Thereof” (THE TRUSTEES OF THE UNIVERSITY OF PENNSYLVANIA, priority 2023, published 2024).

A short description of series [1]: Fluorescence (emission) measurements.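 As to all read-outs here: fluorescence emission spectra recorded on a spectrofluorometer, with each compound excited at its own absorption maximum.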 It is filed as physicochemical. As to conditions: for Emission λem: Table S12; for maximum emission wavelength (λem): 50:50 ACN/PBS, excitation at λabs.
Procedure: The fluorescence spectrum of each derivative (150 μL) was measured on a Photon Technology International (PTI) QuantaMaster™ 40 fluorescence spectrometer by excitation at the maximum absorption wavelength for each compound.
The fluorescence spectrum of each derivative (150 μL) was measured on a Photon Technology International (PTJ) QuantaMaster™ 40 fluorescence spectrometer by excitation at the maximum absorption wavelength for each compound.
The nature of series [2]: Molar absorptivity determination.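 As to all read-outs here: molar absorptivity derived from UV-Vis absorbance spectra recorded for each derivative on a spectrometer.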 Format: physicochemical. To be noted: for E, molar absorptivity (ε): absence of αS PFFs (−), measured at λabs.
Procedure: The absorbance spectrum of each derivative (150 μL) was measured on a Thermo Scientific Genesys 150 UV-Vis spectrometer, using 50:50 ACN/PBS as a blank.
Molar absorptivity determination. […] The absorbance spectrum of each derivative (150 μL) was measured on a Thermo Scientific Genesys 150 UV-Vis spectrometer, using 50:50 ACN/PBS as a blank.
Series [3] concerns the target T1, αS fibrils (Homo sapiens, UniProt P37840).
T1 construct: intein-His6 (C, cleaved yes); made in house; host or cells: Escherichia coli BL21
Nature of the series: Fluorescence spectra with αS fibrils. It is filed as binding. As to conditions: for Stokes shift: difference between λex and λem; for λem: PFF 50 μM; for turn on of fluorescence in the presence of αS PFFs: in vitro generated αS PFFs; for λem, maximum emission wavelength: bound dye; for Stokes shift in the presence of PFFs / emission peaks / emission maxima in the presence of PFFs: αS PFFs. The method, then:
Fluorescence measurements were performed using a PTI QuantaMaster™ 40 fluorescence spectrometer. Fluorescence spectra of 10 μM probes (concentrated stock solution prepared as 10 mM in DMSO) (7b, 7c, 7d, 7e, 7f, 7g and 7h) in PBS buffer were measured by excitation at their absorbance maximum wavelength in the absence and presence of 50 μM αS fibrils (stock solution 100 μM αS fibrils in PBS buffer).
Fluorescence spectra with αS fibrils. Fluorescence measurements were performed using a PTI QuantaMaster 40 fluorescence spectrometer. Fluorescence spectra of 10 μM probes (concentrated stock solution prepared as 10 mM in DMSO) (5b-5f and 5h) in PBS buffer were measured by excitation at their absorbance maximum wavelength in the absence and presence of 50 μM αS fibrils (stock solution 100 μM αS fibrils in PBS buffer). […] FIGS. 77A-77F show fluorescence spectra of probes (5b-5f and 5h) with and without αS fibrils. Final concentrations of probes and αS fibrils were 10 μM and 50 μM, respectively. Emission spectra collected at each dye's maximum absorption wavelength. Ex/Em slit widths: 3 nm/3 nm. […] Absorbance is shown in FIG. 78A and FIG. 78B, whereas FIG. 78C and FIG. 78D show excitation spectra of probes 5j and 5k with and without αS fibrils. Final probe and fibrils concentrations were 10 μM and 50 μM, respectively. […] Emission wavelengths were 575 nm for 5j, 580 nm for 5k. Ex/Em slit widths: 3 nm/3 nm. […] Black line indicates incident light (αS fibrils without probe) and blue line indicates sample (αS fibrils with probe). Excitation at λexc=435 nm for 5j and λexc=463 nm for 5k and spectral collection (400-800 nm). Final concentrations of the probe and αS fibrils are the 100 μM. Ex/Em slit widths: 5 nm/5 nm.

For series [4], the target named is T1, αS fibrils. Put plainly: Excitation spectra with αS fibrils. It is filed as physicochemical. To be noted: dye 10 μM; for λex: presence of αS PFFs, PFF 50 μM; for λex, maximum excitation wavelength: presence of αS PFFs (+), PFFs 50 μM, represents the bound form of dye. The method, then: Excitation spectral measurements were performed using a PTI QuantaMaster™ 40 fluorescence spectrometer. Excitation spectra of 10 μM probes (concentrated stock solution prepared as 10 mM in DMSO) (7j, 7k, 7l, and 7m) in PBS buffer were measured in the absence and presence of 50 μM αS fibrils (stock solution 100 μM αS fibrils in PBS buffer).
Excitation spectra with αS fibrils. Excitation spectral measurements were performed using a PTI QuantaMaster 40 fluorescence spectrometer. Excitation spectra of 10 μM probes (concentrated stock solution prepared as 10 mM in DMSO) (5j and 5k) in PBS buffer were measured in the absence and presence of 50 μM αS fibrils (stock solution 100 μM αS fibrils in PBS buffer).

Series [5] deals with T1, αS fibrils. Nature of the series: Probe binding (Kd) measurements with αS fibrils. As to conditions: 100 μM αS PFFs; probe 10 nM-10 μM. The method, then:
(§1) αS fibrils (100 μM) in PBS buffer were incubated with varying 7k, 7l, and 7m concentrations (0, 0.01, 0.1, 0.5, 1, 3, 5, 7, and 10 μM) from concentrated 10 mM DMSO stock solutions in Greiner 96 well flat black […] plates at 37° C. with shaking at 500 rpm for 15 min in an IKA MS3 control orbital shaker (Wilmington, NC, USA). After 15 min incubation, fluorescence intensity measurements were obtained with a Tecan Spark plate reader (Mannedorf, Switzerland) by excitation with λex/λem=424/570 nm for 7k, λex/λem=463/580 nm for 7l, and λex/λem=484/620 nm for 7m, using the following parameters: excitation and emission bandwidth 5 nm, delay time 0 μs, integration time 40 μs. Averages and standard deviations were calculated from at least 3 independent measurements at each probe concentration. The resulting binding curve was fit to the following equation (modified from the One site—Total, accounting for ligand depletion model) in Graphpad Prism 9 (San Diego, CA, USA), from which the Kd was determined.
Fluorescence Spectra with αS Fibrils
as §1, with “5k” for “7k, 7l, and 7m”, “with” for “with λex/λem=424/570 nm for 7k,”, “5k,” for “7l, and λex/λem=484/620 nm for 7m,”

For series [6], the target named is T1, αS fibrils. Put plainly: Fluorescence lifetime measurements of probes with αS fibrils. It is filed as physicochemical. To be noted: for Fluorescence Lifetime: 100 μM dye and PFFs; for Lifetime: with αS fibrils in PBS buffer, probe and αS fibrils 100 μM; for fluorescence lifetime when bound to PFFs: 100 μM αS PFFs. The method, then: TCSPC measurements of fluorescence lifetime decays for 100 μM dyes in the presence of 100 μM αS fibrils were collected with the PTI Quantamaster™ 40 using a pulsed LED with a maximum emission at 486 nm. Fluorescence emission was collected at the indicated wavelength for each dye with 20 nm slit widths. The IRF was collected under identical conditions. Data analysis was performed with FluoFit software using an exponential decay model.

Setting [7] is: 25 μM in ACN/PBS buffer (1:1 v/v), pH 7.4.
The mark [8] stands for this setting: ACN/PBS buffer (1:1 v/v), pH 7.4.
The mark [9] stands for this setting: in ACN, at maximum absorption wavelength.
Setting [10] is: presence of αS PFFs (+), dye 10 μM, PFFs 50 μM.

The Kd is the equilibrium constant for the complex coming apart. Low values mean tighter binding, high ones weaker binding.

SMILES strings stand for the structures.

As for `Cc1c(C)n2c(/C=C/c3ccc(N4CCOCC4)cc3)c(C)c(=O)n2c1=O` [Compound 7k, (E)-2,3,6-trimethyl-5-(4-morpholinostyryl)-1H,7H-pyrazolo[1,2-a]pyrazole-1,7-dione], the “Emission λmax” value in series [1] (25 μM in ACN) came out at 565 nm; in series [1] (setting [7]), 603 nm. For the same compound, the Stokes shift is reported as 217 nm in series [1] (ACN/PBS buffer (1:1 v/v)), 187 nm in series [1] (in ACN) and 146 nm on αS fibrils [3] (presence of αS PFFs). Further, the figures for the “Molar Absorptivity (ε)” value in series [2] (setting [8]) and in series [2] (setting [9]) were 29562 M⁻¹ cm⁻¹ and 28890 M⁻¹ cm⁻¹, respectively. Besides, on αS fibrils [3] (presence of αS PFFs, dye 10 μM), the λem stood at 570 nm. Also, the λex on αS fibrils [4] was 424 nm. Also, the equilibrium dissociation constant (Kd) on αS fibrils [5] came out at 2.45 ± 1.24 µM. Further, on αS fibrils [6] (presence of αS PFFs), the “Fluorescence Lifetime” value worked out at 2.09 ns. The compound further returned a Lifetime at αS fibrils [6] of 2.09 ± 0.01 ns.

Take `Cc1c(C)n2c(/C=C/c3ccc(N(C)C)cc3)c(C)c(=O)n2c1=O` [Compound 7l, (E)-3-(4-(dimethylamino)styryl)-2,5,6-trimethyl-1H,7H-pyrazolo[1,2-a]pyrazole-1,7-dione]: in series [1] (25 μM in ACN), the “Emission λmax” value worked out at 568 nm and the “Emission λem” value is 568 nm. Further, the “Emission λmax” value in series [1] (setting [7]) was 604 nm. Also, the “maximum emission wavelength (λem)” value in series [1] is listed as 604 nm. In series [1] (ACN/PBS buffer (1:1 v/v)), the Stokes shift was determined as 186 nm. Besides, the Stokes shift in series [1] (in ACN) is 166 nm. Moreover, the “Molar Absorptivity (ε)” value in series [2] (setting [8]) is 30420 M⁻¹ cm⁻¹. In addition, the “E, molar absorptivity (ε)” value in series [2] is 20071 M⁻¹ cm⁻¹. Further, in series [2] (setting [9]), the “Molar Absorptivity (ε)” value came out at 24742 M⁻¹ cm⁻¹. At αS fibrils [3], the “emission maximum bound to αS” value was 584 nm, the “turn on of fluorescence in the presence of αS PFFs” value is listed as “significant turn-on of orange fluorescence”, the “Stokes shift in the presence of PFFs” value is reported as 117 nm and the “emission peaks / emission maxima in the presence of PFFs” value stood at 580 nm. Moreover, on αS fibrils [3] (setting [10]), the “Stokes shift” value was 117 nm and the “λem, maximum emission wavelength” value was 580 nm. At αS fibrils [3] (presence of αS PFFs), the “Stokes shift” value is listed as 117 nm. For the same compound, the λem at αS fibrils [3] (presence of αS PFFs, dye 10 μM) is reported as 580 nm. At αS fibrils [4], the “λex, maximum excitation wavelength” value is reported as 463 nm and the λex is listed as 463 nm. The same compound came in with a Kd on αS fibrils [5] of 1.45 ± 0.43 µM. Besides, on αS fibrils [6], the “fluorescence lifetime when bound to PFFs” value was 2.27 ns and the Lifetime turned out to be 2.27 ± 0.01 ns. In addition, at αS fibrils [6] (presence of αS PFFs (+)), the “Fluorescence Lifetime” value is recorded as 2.27 ns. The “Fluorescence Lifetime” value at αS fibrils [6] (presence of αS PFFs) turned out to be 2.27 ns.

With `Cc1c(C)n2c(/C=C/c3ccc(N)cc3)c(C)c(=O)n2c1=O` [Compound 7j, (E)-3-(4-aminostyryl)-2,5,6-trimethyl-1H,7H-pyrazolo[1,2-a]pyrazole-1,7-dione], the “Emission λmax” value in series [1] (25 μM in ACN) amounted to 540 nm; in series [1] (setting [7]) it was 583 nm. Besides, the “Emission λem” value in series [1] (25 μM in ACN) is 540 nm. Also, the “maximum emission wavelength (λem)” value in series [1] amounted to 583 nm. Further, the Stokes shift in series [1] (ACN/PBS buffer (1:1 v/v)) came out at 198 nm; in series [1] (in ACN) it was 162 nm; on αS fibrils [3] (setting [10]) it was 140 nm; on αS fibrils [3] (presence of αS PFFs) it was 140 nm. For the same compound, the entries for the “Molar Absorptivity (ε)” value in series [2] (setting [8]) and in series [2] (setting [9]) were 30834 M⁻¹ cm⁻¹ and 32091 M⁻¹ cm⁻¹, respectively. The “E, molar absorptivity (ε)” value in series [2] came to 15385 M⁻¹ cm⁻¹. Moreover, the “turn on of fluorescence in the presence of αS PFFs” value at αS fibrils [3] is reported as “significant turn-on of orange fluorescence”. Further, the “λem, maximum emission wavelength” value at αS fibrils [3] (setting [10]) amounted to 575 nm. Moreover, the λem on αS fibrils [3] (presence of αS PFFs, dye 10 μM) is on record as 575 nm. Moreover, the “Stokes shift in the presence of PFFs” value at αS fibrils [3] was 140 nm. Further, the “emission peaks / emission maxima in the presence of PFFs” value at αS fibrils [3] (listed as 5j) came out at 575 nm. Also, the “λex, maximum excitation wavelength” value on αS fibrils [4] was 435 nm. The λex on αS fibrils [4] was found to be 435 nm. In addition, the “fluorescence lifetime when bound to PFFs” value on αS fibrils [6] was 1.90 ns. In addition, the “Fluorescence Lifetime” value at αS fibrils [6] (presence of αS PFFs (+)) and at αS fibrils [6] (presence of αS PFFs) was 1.90 ns each time. The compound also registered a Lifetime at αS fibrils [6] of 1.90 ± 0.01 ns.

`Cc1c(C)n2c(/C=C/C=C/c3ccc(N(C)C)cc3)c(C)c(=O)n2c1=O` [Compound 7m, 3-((1E,3E)-4-(4-(dimethylamino)phenyl)buta-1,3-dien-1-yl)-2,5,6-trimethyl-1H,7H-pyrazolo[1,2-a]pyrazole-1,7-dione]: the “Emission λmax” value in series [1] (25 μM in ACN) came out at 620 nm; in series [1] (setting [7]), 640 nm. The “maximum emission wavelength (λem)” value in series [1] was 640 nm. Moreover, the Stokes shift in series [1] (ACN/PBS) came to 204 nm; in series [1] (ACN/PBS buffer (1:1 v/v)), 204 nm; in series [1] (in ACN), 210 nm; on αS fibrils [3] (presence of αS PFFs), 136 nm. Also, the “Molar Absorptivity (ε)” value came out at 36689 M⁻¹ cm⁻¹ in series [2] (setting [8]) and 28639 M⁻¹ cm⁻¹ in series [2] (setting [9]). In addition, the “concentration-dependent shift in the emission maximum with αS fibrils” value on αS fibrils [3] is “binding at multiple sites”. The λem at αS fibrils [3] (presence of αS PFFs, dye 10 μM) is recorded as 620 nm. Further, at αS fibrils [4], the λex is 484 nm. Moreover, the affinity at αS fibrils [5], expressed as Kd, was 0.42 ± 0.25 µM. On αS fibrils [6] (presence of αS PFFs), the “Fluorescence Lifetime” value was found to be 1.27 ns. This compound gave a Lifetime at αS fibrils [6] of 1.27 ± 0.01 ns.
